Reference: the supplement of paper PMC10307832

Key:
Assay in all cases: relative viability (nuclei count vs DMSO), 5 days (fraction); higher = more cells survive
Trametinib + Navitoclax = compound: CC(=O)Nc1cccc(-n2c(=O)n(C3CC3)c(=O)c3c(Nc4ccc(I)cc4F)n(C)c(=O)c(C)c32)c1 [Trametinib] + CC1(C)CCC(c2ccc(Cl)cc2)=C(CN2CCN(c3ccc(C(=O)NS(=O)(=O)c4ccc(N[C@H](CCN5CCOCC5)CSc5ccccc5)c(S(=O)(=O)C(F)(F)F)c4)cc3)CC2)C1 [Navitoclax] (partner 0.5 µM)
Method in brief: (§1)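 The day after seeding in 1536-well plates, lung cancer cell lines were treated by pin tool with a single drug, or with a fixed anchor-drug dose together with five library-drug doses (not always all listed) in √10 steps. After 5 days, a combined fix-and-stain solution (final 0.05% Triton X-100, 1% formaldehyde, 1 ug/ml Hoechst) was added. Nuclei counted on 4× images gave relative viability as treated counts over vehicle counts, reported as the median of duplicate plates.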

Trametinib + Foretinib = compound: CC(=O)Nc1cccc(-n2c(=O)n(C3CC3)c(=O)c3c(Nc4ccc(I)cc4F)n(C)c(=O)c(C)c32)c1 [Trametinib] + COc1cc2c(Oc3ccc(NC(=O)C4(C(=O)Nc5ccc(F)cc5)CC4)cc3F)ccnc2cc1OCCCN1CCOCC1 [Foretinib] (partner 0.25 µM)
Method in brief: as §1

[1] = compound: CN1C=C(C2=CC=CC=C21)/C=C\3/C4=C(C=CC=N4)NC3=O + Nc1nc2[nH]cc(CCc3ccc(C(=O)N[C@@H](CCC(=O)O)C(=O)O)cc3)c2c(=O)[nH]1 [Pemetrexed] (partner 0.2 µM)
Method in brief: as §1

Trametinib + Alpelisib = compound: CC(=O)Nc1cccc(-n2c(=O)n(C3CC3)c(=O)c3c(Nc4ccc(I)cc4F)n(C)c(=O)c(C)c32)c1 [Trametinib] + Cc1nc(NC(=O)N2CCC[C@H]2C(N)=O)sc1-c1ccnc(C(C)(C)C(F)(F)F)c1 [Alpelisib] (partner 2 µM)
Method in brief: as §1

Row | Cell Line | relative viability (Trametinib + Navitoclax; first compound 0.0025 µM) | relative viability (Trametinib + Navitoclax; first compound 0.007906 µM) | relative viability (Trametinib + Navitoclax; first compound 0.025 µM) | relative viability (Trametinib + Navitoclax; first compound 0.07906 µM) | relative viability (Trametinib + Navitoclax; first compound 0.25 µM) | relative viability (Trametinib + Foretinib; first compound 0.0025 µM) | relative viability (Trametinib + Foretinib; first compound 0.007906 µM) | relative viability (Trametinib + Foretinib; first compound 0.025 µM) | relative viability (Trametinib + Foretinib; first compound 0.07906 µM) | relative viability (Trametinib + Foretinib; first compound 0.25 µM) | relative viability ([1]; first compound 0.02 µM) | relative viability ([1]; first compound 0.06325 µM) | relative viability ([1]; first compound 0.2 µM) | relative viability ([1]; first compound 0.6325 µM) | relative viability ([1]; first compound 2 µM) | relative viability (Trametinib + Alpelisib; first compound 0.0025 µM) | relative viability (Trametinib + Alpelisib; first compound 0.007906 µM) | relative viability (Trametinib + Alpelisib; first compound 0.025 µM) | relative viability (Trametinib + Alpelisib; first compound 0.07906 µM) | relative viability (Trametinib + Alpelisib; first compound 0.25 µM)
1 | NCI-H2087 | 0.718 | 0.406 | 0.244 | 0.223 | 0.257 | 0.803 | 0.488 | 0.343 | 0.211 | 0.205 | 0.671 | 0.62 | 0.622 | 0.631 | 0.656 | 0.705 | 0.442 | 0.371 | 0.28 | 0.266
2 | BEN | 0.0591 | 0.054 |  | 0.0541 | 0.179 | 0.757 | 0.727 | 0.302 | 0.408 | 0.499 | 0.715 | 0.847 | 0.613 | 0.731 | 0.734 | 0.951 | 0.939 |  | 0.763 | 0.888
3 | NCI-H3122 | 0.937 | 0.867 | 0.508 | 0.548 | 0.435 | 0.895 | 0.769 | 0.293 | 0.251 | 0.159 | 0.185 | 0.196 | 0.203 | 0.194 | 0.267 | 0.466 | 0.395 | 0.224 | 0.234 | 0.21
4 | LCLC-97TM1 | 0.427 | 0.451 | 0.216 | 0.207 | 0.122 | 0.817 | 0.666 | 0.459 | 0.306 | 0.301 |  | 0.177 | 0.18 | 0.21 | 0.186 | 0.216 | 0.199 | 0.146 | 0.183 | 0.11
5 | NCI-H2228 | 0.782 | 0.803 | 0.706 | 0.626 | 0.548 | 0.911 | 0.761 | 0.811 | 0.571 | 0.4 | 0.337 | 0.305 | 0.349 | 0.372 | 0.365 | 0.749 | 0.527 | 0.488 | 0.331 | 0.194
6 | COR-L23 | 0.977 | 1.02 | 1.04 | 0.694 | 0.475 | 1.05 | 1.04 | 0.953 | 0.777 | 0.45 | 0.197 | 0.189 | 0.209 | 0.18 | 0.19 | 0.766 | 0.723 | 0.668 | 0.436 | 0.241
7 | EMC-BAC-2 | 1.07 | 0.956 | 1.06 | 0.891 | 0.817 | 0.917 | 0.885 | 0.782 | 0.907 | 0.68 | 0.407 | 0.438 | 0.442 | 0.465 | 0.421 | 0.645 | 0.641 | 0.562 | 0.568 | 0.497
8 | NCI-H1944 | 0.916 | 0.71 | 0.544 | 0.664 | 0.49 | 0.811 | 0.634 | 0.572 | 0.461 | 0.341 | 0.549 | 0.558 |  | 0.617 | 0.652 | 0.716 | 0.603 | 0.532 | 0.463 | 0.325
9 | A-427 | 0.989 | 0.799 | 0.489 | 0.545 | 0.296 | 1 | 0.747 | 0.619 | 0.517 | 0.448 | 0.981 | 0.973 |  | 0.94 | 0.983 | 0.91 | 1.02 | 0.437 | 0.607 | 0.269
10 | NCI-H520 | 1.11 | 1.15 | 1.04 | 1.01 | 0.77 | 0.874 | 0.785 | 0.866 | 0.739 | 0.585 | 0.67 | 0.53 | 0.698 | 0.672 | 0.732 | 0.768 | 0.887 | 0.81 | 0.818 | 0.693
11 | COR-L 105 | 0.594 | 0.517 | 0.417 | 0.387 | 0.324 | 0.815 | 1.19 | 0.489 | 0.552 | 0.374 | 1.07 | 0.969 | 1.12 | 1.28 | 1.3 | 0.808 | 1.03 | 0.352 | 0.419 | 0.389
12 | NCI-H1755 | 0.958 | 0.952 | 0.901 | 0.918 | 0.838 | 0.856 | 0.863 | 0.82 | 0.809 | 0.787 | 0.351 | 0.365 | 0.427 | 0.423 | 0.373 | 0.798 | 0.83 | 0.799 | 0.802 | 0.753
13 | NCI-H2085 | 1.07 | 0.9 | 0.924 | 0.878 | 0.81 | 0.695 | 0.732 | 0.625 | 0.587 | 0.626 | 0.789 | 0.927 | 0.836 | 0.975 | 0.967 | 0.916 | 0.757 | 0.635 | 0.655 | 0.608
14 | NCI-H2023 | 0.864 | 0.825 | 0.877 | 0.549 | 0.33 | 0.795 | 0.472 | 0.497 | 0.35 | 0.302 | 0.274 | 0.171 |  | 0.25 | 0.2 | 0.38 | 0.486 | 0.315 | 0.352 | 0.288
15 | HOP-62 | 1.05 | 1.03 | 0.741 | 0.617 | 0.198 | 1.04 | 0.948 | 0.623 | 0.341 | 0.252 | 0.285 | 0.299 |  | 0.357 | 0.366 | 0.813 | 0.984 | 0.525 | 0.377 | 0.166
